Data published in ChEMBL document CHEMBL3885861, “Open TG-GATES”.

Species: Rattus norvegicus
Assay: Open TG-GATES - Regimen: Daily Repeat
Format: toxicity, organism-based, Sprague-Dawley
Design: regimen Daily Repeat, gender Male, age 6 weeks
Conditions: in vivo, po, 6 mg/kg, route gavage, dose level Low; for APTT / Bas / Eos / Fbg / Hb / Ht / Lym / MCH / MCHC / MCV / Mono / Neu / PT / Plat / RBC / Ret / WBC: tissue Blood; for LIVER: tissue Liver; for A/G / ALP / ALT / AST / BUN / CRE / Ca / Cl / DBIL / GLC / IP / K / LDH / Na / PL / RALB / TBIL / TC / TG / TP / gamma-GTP: tissue Plasma

What does the source list for O=[N+]([O-])c1ccc(O)c([N+](=O)[O-])c1 [2,4-DINITROPHENOL]?
TERMINAL_BW (72 h, time 3 day): 247 g; APTT (72 h, time 3 day): 16.5 s; Bas (72 h, time 3 day): 0%; Eos (72 h, time 3 day): 1%; Fbg (72 h, time 3 day): 280.8 mg/dL; Hb (72 h, time 3 day): 13.5 g/dL; Ht (72 h, time 3 day): 39.7%; Lym (72 h, time 3 day): 70%; MCH (72 h, time 3 day): 21.5 pg; MCHC (72 h, time 3 day): 34%; MCV (72 h, time 3 day): 63.2 fL; Mono (72 h, time 3 day): 9.4%; Neu (72 h, time 3 day): 19.4%; PT (72 h, time 3 day): 11.4 s; Plat (72 h, time 3 day): 143.8 x10_4/uL; RBC (72 h, time 3 day): 628 x10_4/ul; Ret (72 h, time 3 day): 6.1%; WBC (72 h, time 3 day): 100 x10_2/uL; LIVER (72 h, time 3 day): 12.5 g; A/G (72 h, time 3 day): 2.3; ALP (72 h, time 3 day): 1318.2 IU/L; ALT (72 h, time 3 day): 36 IU/L; AST (72 h, time 3 day): 61.6 IU/L; BUN (72 h, time 3 day): 18.8 mg/dL; CRE (72 h, time 3 day): 0.4 mg/dL; Ca (72 h, time 3 day): 11.6 mg/dL; Cl (72 h, time 3 day): 104.4 meq/L; DBIL (72 h, time 3 day): 0.012 mg/dL; GLC (72 h, time 3 day): 190 mg/dL; IP (72 h, time 3 day): 7.9 mg/dL; K (72 h, time 3 day): 4.9 meq/L; LDH (72 h, time 3 day): 110.2 IU/L; Na (72 h, time 3 day): 137.6 meq/L; PL (72 h, time 3 day): 165.2 mg/dL; RALB (72 h, time 3 day): 4 g/dL; TBIL (72 h, time 3 day): 0.032 mg/dL; TC (72 h, time 3 day): 89.2 mg/dL; TG (72 h, time 3 day): 137.2 mg/dL; TP (72 h, time 3 day): 5.7 g/dL; gamma-GTP (72 h, time 3 day): 0.6 IU/L; TERMINAL_BW ([…], time 7 day): 282.7 g; TERMINAL_BW ([…], time 14 day): 318.6 g; TERMINAL_BW ([…], time 28 day): 445.6 g; APTT ([…], time 7 day): 16.4 s; Bas ([…], time 7 day): 0%; Eos ([…], time 7 day): 0.8%; Fbg ([…], time 7 day): 264.6 mg/dL; Hb ([…], time 7 day): 13.1 g/dL; Ht ([…], time 7 day): 38.6%; Lym ([…], time 7 day): 81.6%; MCH ([…], time 7 day): 21.3 pg; MCHC ([…], time 7 day): 33.9%; MCV ([…], time 7 day): 62.6 fL; Mono ([…], time 7 day): 4.2%; Neu ([…], time 7 day): 13.6%; PT ([…], time 7 day): 11.5 s; Plat ([…], time 7 day): 137.2 x10_4/uL; RBC ([…], time 7 day): 617.8 x10_4/ul; Ret ([…], time 7 day): 5.3%; WBC ([…], time 7 day): 117 x10_2/uL; APTT ([…], time 14 day): 17.1 s; Bas ([…], time 14 day): 0%; Eos ([…], time 14 day): 1%; Fbg ([…], time 14 day): 255.8 mg/dL; Hb ([…], time 14 day): 14.1 g/dL; Ht ([…], time 14 day): 41.5%; Lym ([…], time 14 day): 76.4%; MCH ([…], time 14 day): 20.9 pg; MCHC ([…], time 14 day): 33.9%; MCV ([…], time 14 day): 61.7 fL; Mono ([…], time 14 day): 6.4%; Neu ([…], time 14 day): 16.4%; PT ([…], time 14 day): 11.8 s; Plat ([…], time 14 day): 119.2 x10_4/uL; RBC ([…], time 14 day): 671.8 x10_4/ul; Ret ([…], time 14 day): 3.9%; WBC ([…], time 14 day): 134.2 x10_2/uL; APTT ([…], time 28 day): 16.5 s; Bas ([…], time 28 day): 0%; Eos ([…], time 28 day): 1.2%; Fbg ([…], time 28 day): 282.4 mg/dL; Hb ([…], time 28 day): 14.9 g/dL; Ht ([…], time 28 day): 43.9%; Lym ([…], time 28 day): 76.6%; MCH ([…], time 28 day): 19.6 pg; MCHC ([…], time 28 day): 33.9%; MCV ([…], time 28 day): 57.8 fL; Mono ([…], time 28 day): 5.6%; Neu ([…], time 28 day): 16.8%; PT ([…], time 28 day): 11.8 s; Plat ([…], time 28 day): 121.2 x10_4/uL; RBC ([…], time 28 day): 759.4 x10_4/ul; Ret ([…], time 28 day): 2.2%; WBC ([…], time 28 day): 117.4 x10_2/uL; LIVER ([…], time 7 day): 13.1 g; LIVER ([…], time 14 day): 13.9 g; LIVER ([…], time 28 day): 20 g; A/G ([…], time 7 day): 2.3; ALP ([…], time 7 day): 1599.8 IU/L; ALT ([…], time 7 day): 36.8 IU/L; AST ([…], time 7 day): 66 IU/L; BUN ([…], time 7 day): 17.6 mg/dL; CRE ([…], time 7 day): 0.3 mg/dL; Ca ([…], time 7 day): 11.4 mg/dL; Cl ([…], time 7 day): 104.8 meq/L; DBIL ([…], time 7 day): 0.012 mg/dL; GLC ([…], time 7 day): 188.2 mg/dL; IP ([…], time 7 day): 7.4 mg/dL; K ([…], time 7 day): 4.5 meq/L; LDH ([…], time 7 day): 115.4 IU/L; Na ([…], time 7 day): 140.8 meq/L; PL ([…], time 7 day): 138.6 mg/dL; RALB ([…], time 7 day): 3.9 g/dL; TBIL ([…], time 7 day): 0.03 mg/dL; TC ([…], time 7 day): 74.2 mg/dL; TG ([…], time 7 day): 121.8 mg/dL; TP ([…], time 7 day): 5.6 g/dL; gamma-GTP ([…], time 7 day): 1 IU/L; A/G ([…], time 14 day): 2.1; ALP ([…], time 14 day): 1262 IU/L; ALT ([…], time 14 day): 34.8 IU/L; AST ([…], time 14 day): 66.2 IU/L; BUN ([…], time 14 day): 18.8 mg/dL; CRE ([…], time 14 day): 0.4 mg/dL; Ca ([…], time 14 day): 11.1 mg/dL; Cl ([…], time 14 day): 106.2 meq/L; DBIL ([…], time 14 day): 0.01 mg/dL; GLC ([…], time 14 day): 184.6 mg/dL; IP ([…], time 14 day): 6.8 mg/dL; K ([…], time 14 day): 4.7 meq/L; LDH ([…], time 14 day): 114.6 IU/L; Na ([…], time 14 day): 136.8 meq/L; PL ([…], time 14 day): 129.4 mg/dL; RALB ([…], time 14 day): 3.8 g/dL; TBIL ([…], time 14 day): 0.016 mg/dL; TC ([…], time 14 day): 62.4 mg/dL; TG ([…], time 14 day): 125.8 mg/dL; TP ([…], time 14 day): 5.7 g/dL; gamma-GTP ([…], time 14 day): 0 IU/L; A/G ([…], time 28 day): 1.9; ALP ([…], time 28 day): 1091.6 IU/L; ALT ([…], time 28 day): 33 IU/L; AST ([…], time 28 day): 63.6 IU/L; BUN ([…], time 28 day): 20.2 mg/dL; CRE ([…], time 28 day): 0.5 mg/dL; Ca ([…], time 28 day): 11 mg/dL; Cl ([…], time 28 day): 105.2 meq/L; DBIL ([…], time 28 day): 0.01 mg/dL; GLC ([…], time 28 day): 203 mg/dL; IP ([…], time 28 day): 7.3 mg/dL; K ([…], time 28 day): 4.3 meq/L; LDH ([…], time 28 day): 144.4 IU/L; Na ([…], time 28 day): 140.6 meq/L; PL ([…], time 28 day): 150 mg/dL; RALB ([…], time 28 day): 3.9 g/dL; TBIL ([…], time 28 day): 0.03 mg/dL; TC ([…], time 28 day): 72.6 mg/dL; TG ([…], time 28 day): 199.8 mg/dL; TP ([…], time 28 day): 6 g/dL; gamma-GTP ([…], time 28 day): 0.8 IU/L
